Measured values taken from US20260167622A1, “PAN-KRAS DEGRADING AGENT, AND PREPARATION METHOD THEREFOR AND USE THEREOF” (LEADINGTAC PHARMACEUTICAL (SHAOXING) CO., LTD., priority 2022, published 2026).

What was measured:
Assay type in all cases: cell-based
[1] = test system: KRAS G12C mutant human non-small cell lung cancer cell NCI-H358; experiment: 3D cell proliferation inhibition assay, NCI-H358; conditions: NCI-H358, 168 h, 3D culture, 7 days, CTG
Excerpt: (§1) Test Example 6: 3D Cell Proliferation Inhibition Assay
(§2) The inhibitory effects of the compounds on 3D cell proliferation were investigated on KRAS G12C mutant human non-small cell lung cancer cell NCI-H358, KRAS G12D mutant human lung cancer cell A427, KRAS G12D mutant human gastric cancer cell AGS, KRAS G12D mutant human metastatic pancreatic cancer cell AsPc-1, KRAS G12V mutant human lung squamous carcinoma cell SW900, KRAS G12V mutant human colorectal cancer cell SW620, KRAS G13D mutant human colorectal cancer epithelial cell DLD-1, and KRAS WT human gastric cancer cell MKN1. The specific procedures were as follows:
(§3) 10 μL of each compound solution diluted in a gradient was added to corresponding wells of a 96-well low-adsorption microplate (PerkinElmer), so that the final concentrations of the test compounds in the reaction system were in a range of 10000-0.026 nM. The final concentration of DMSO was 0.2%. Then 90 µL of cells were correspondingly seeded into each well to achieve a cell density of 5×10^2 cells/well (the cell density of SW900 was 5×10^3 cells/well, and the cell density of MKN1 was 1×10^3 cells/well). In addition to test wells for the test compounds, both a DMSO control well and a medium control well were set, with the DMSO control well containing DMSO and cells and the medium well containing only a medium. After the sample loading, the 96-well low-adsorption microplate was incubated in an incubator at 37° C. with […] for 7 days. After 7 days, the microplate was taken out, and 100 μL of CTG reagent (Promega) was added to each well. The plate was incubated at room temperature for 60 m and read on a microplate reader EnVision by the chemiluminescence program. The inhibition rates of the compounds at each concentration were calculated using the formula for the percentage inhibition of cell proliferation: inhibition rate 00=(mean value of DMSO control group−single concentration reading value of compound)/(mean value of DMSO control group−mean value of medium control group)×100. Then non-linear curve fillings for logarithmic concentration-inhibition rate were performed by GraphPad Prism 8, and the IC50 values of the compounds were obtained (Table 6).

[2] = test system: KRAS G12V mutant human colorectal cancer cell SW620; experiment: 3D cell proliferation inhibition assay, SW620; conditions: SW-620, 168 h, 3D culture, 7 days, CTG
Excerpt: as §1, §2, §3

[3] = test system: KRAS G13D mutant human colorectal cancer epithelial cell DLD-1; experiment: 3D cell proliferation inhibition assay, DLD-1; conditions: DLD-1, 168 h, 3D culture, 7 days, CTG
Excerpt: as §1, §2, §3

[4] = biological target: T1, KRAS G12V protein in SW620 cells (Homo sapiens, UniProt P01116, G12V); experiment: KRAS degradation assay (Western Blot) in SW620 cells; conditions: for DC50: 24 h; for Dmax: SW-620, 24 h
T1 construct: endogenous in cells; host or cells: SW620
T1 sequence (P01116 1-188 isoform P01116-2 G12V): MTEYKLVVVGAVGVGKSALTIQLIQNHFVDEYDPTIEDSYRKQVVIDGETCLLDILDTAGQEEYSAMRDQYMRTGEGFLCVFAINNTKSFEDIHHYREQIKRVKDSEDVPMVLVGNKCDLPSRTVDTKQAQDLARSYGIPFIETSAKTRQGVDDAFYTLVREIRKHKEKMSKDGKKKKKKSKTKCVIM
Excerpt: (§4) Test Example 5: KRAS G12C, KRAS G12D, KRAS G12V, KRAS G13D, and KRAS WT (Expanded) Degradation Assays
(§5) The degradation effect of the compounds on KRAS was investigated on KRAS G12C mutant human non-small cell lung cancer cell NCI-H358, KRAS G12D mutant human metastatic pancreatic cancer cell AsPc-1, KRAS G12D mutant human lung cancer cell A427, KRAS G12V mutant human colorectal cancer cell SW620, KRAS G12V mutant human lung cancer cell SW900, KRAS G13D mutant human colorectal cancer epithelial cell DLD-1, and KRAS WT human gastric cancer cell MKN-1. The specific procedures were as follows: 0.95 mL of cells were seeded into each well of a 24-well cell culture plate to achieve a cell density of 5×10^5 cells/well; and the cell plate was incubated in an incubator at 37° C. with 5% CO2 overnight. Then 50 μL of the compound solution after dilution was added to each of the wells with the corresponding cells, so that the final concentration of the compound was in a range of 0.03-3000 nM. The final concentration of DMSO was 0.25%. After the compounds were added, the cell plate was incubated in an incubator at 37° C. with 5% CO2 for 24 h. The culture medium in the 24-well cell culture plate was then removed, and the plate was washed twice with 1×PBS (KeyGEN). 120 μL of RIPA (strong) lysis buffer (Beyotime) (supplemented with 1 mM phenylmethylsulfonyl fluoride, a protease inhibitor mixture (Beyotime), and a protease phosphatase inhibitor mixture (Beyotime)) was added to lyse adherent SW900 cells at the bottom of the cell culture plate. After the plate was left to stand on ice for 30 min, the protein lysate in each well was transferred to a 1.5 mL centrifuge tube and centrifuged at 15000 g for 20 min at 4° C. The cell lysate supernatants after centrifugation were cryopreserved in a refrigerator at −80° C. for later use.
(§6) After the samples of the cell lysate supernatants that had been prepared were thawed from the refrigerator at −80° C., the total protein concentrations of the cell lysates were determined using a BCA protein quantification kit (Tiangen). The total protein concentrations of the samples were then adjusted to 0.5 μg/μL with PBS and 5×SDS-PAGE protein loading buffer (Beyotime), and the samples were incubated in a water bath at 100° C. for 15 min. The samples were then incubated in an ice bath for 5 min and centrifuged at 14000 g for 1 min at 4° C., and the supernatants were mixed well as loading samples for the Western Blot assay. The samples were loaded into wells of a 10% precast gel (KeyGEN) with a loading volume of 10 μL (total protein: 5 μg), a sufficient Tris-MOPS-SDS running buffer (Adamas) was added, and then electrophoresis was performed at a constant voltage of 120 V for 55 min. After the electrophoresis, the proteins on the gel were transferred to PVDF membranes at a constant current of 250 mA for 55 min. After the membrane transfer, the PVDF membranes were incubated in 1× Quick Block blocking buffer (Beyotime)at room temperature for 30 min. After the blocking, the PVDF membranes were separately incubated at 4° C. overnight with the KRAS antibody (Abcam) diluted in a ratio of 1:1000 and the β-actin antibody (Abcam) diluted in a ratio of 1:2000 in 5% BSA as the diluent, and then washed with 1×TBST buffer (2.4 g of Tris, 8.8 g of NaCl, 1.5 mL of Tween 20, with pH adjusted to 7.4, with the volume brought to 1 L) 3 times for 10 min/time. The membranes were incubated with a secondary antibody (Abcam) diluted in 5% BSA at room temperature for 2 h, and then washed with 1×TBST buffer 3 times for 10 min/time. Finally, the membranes were incubated with Clarity Western ECL Substrate (BIO-RAD) for 5 min for luminescence and color development, and a ChemiScope 6200 Touch chemiluminescence imaging system (Clinx) was used for color development and protein mapping. Gray value analysis of the protein maps was performed using the chemiluminescence analysis software (Clinx). […]

[5] = test system: KRAS G12D mutant human metastatic pancreatic cancer cell AsPc-1; experiment: 3D cell proliferation inhibition assay, AsPc-1; conditions: ASPC1, 168 h, 3D culture, 7 days, CTG
Excerpt: as §1, §2, §3

[6] = biological target: T2, KRAS G12V protein in SW900 cells (Homo sapiens, UniProt P01116, G12V); experiment: KRAS degradation assay (Western Blot) in SW900 cells; conditions: 24 h
T2 construct: endogenous in cells; host or cells: SW900
T2 sequence (P01116 1-188 isoform P01116-2 G12V): as above
Excerpt: as §4, §5, §6

Row | IC50 [1] | IC50 [2] | IC50 [3] | DC50 [4] | Dmax [4] | IC50 [5] | DC50 [6] | Dmax [6] | Structure (SMILES)
1 | – | – | – | – | – | 523 nM | – | – | C#Cc1c(F)ccc2cc(O)cc(-c3ncc4c(N5CCCC(C)(N)C5)nc(OCC5(CN6CCN(CC7CCC8(CC7)CCN(C(=O)c7ccc(C)c(N9CCC(=O)NC9=O)c7)CC8)CC6)CC5)nc4c3F)c12 (stereo not shown) [Example 166, 1-(5-(9-((4-((1-(((4-(3-amino-3-methylpiperidin-1-yl)-7-(8-ethynyl-7-fluoro-3-hydroxynaphthalen-1-yl)-8-fluoropyrido[4,3-d]pyrimidin-2-yl)oxy)methyl)cyclopropyl)methyl)piperazin-1-yl)methyl)-3-azaspiro[5.5]undecane-3-carbonyl)-2-methylphenyl)dihydropyrimidine-2,4(1H,3H)-dione]
2 | 535 nM | 32.9 nM | 70.2 nM | 33.6 nM | 93.1% | 417 nM | – | – | C#Cc1c(F)ccc2cc(O)cc(-c3ncc4c(N5CCCC(F)(F)C5)nc(OC[C@H](C)CN5CCN(CC6CCC7(CC6)CCN(C(=O)c6ccc(OC)c(N8CCC(=O)NC8=O)c6)CC7)CC5)nc4c3F)c12 [Example 67, (R)-1-(5-(9-((4-(3-((4-(3,3-difluoropiperidin-1-yl)-7-(8-ethynyl-7-fluoro-3-hydroxynaphthalen-1-yl)-8-fluoropyrido[4,3-d]pyrimidin-2-yl)oxy)-2-methylpropyl)piperazin-1-yl)methyl)-3-azaspiro[5.5]undecane-3-carbonyl)-2-methoxyphenyl)dihydropyrimidine-2,4(1H,3H)-dione]
3 | 18.9 nM | 13.3 nM | 39.9 nM | 18.9 nM | 99.3% | 68.2 nM | – | – | C#Cc1c(F)ccc2cc(O)cc(-c3ccc4c(N5CCC[C@@](C)(O)C5)nc(OC[C@H](C)CN5CCN(CC6CCC7(CC6)CCN(C(=O)c6ccc(C)c(N8CCC(=O)NC8=O)c6)CC7)CC5)nc4c3F)c12 [Example 61, 1-(5-(9-((4-((R)-3-((7-(8-ethynyl-7-fluoro-3-hydroxynaphthalen-1-yl)-8-fluoro-4-((R)-3-hydroxy-3-methylpiperidin-1-yl)quinazolin-2-yl)oxy)-2-methylpropyl)piperazin-1-yl)methyl)-3-azaspiro[5.5]undecane-3-carbonyl)-2-methylphenyl)dihydropyrimidine-2,4(1H,3H)-dione]

More lines, now with the values behind:

Row | Structure (SMILES) | IC50 [1] | IC50 [2] | IC50 [3] | DC50 [4] | Dmax [4] | IC50 [5] | DC50 [6] | Dmax [6]
4 | C#Cc1c(F)ccc2cc(O)cc(-c3ccc4c(N5CCC[C@@](C)(O)C5)nc(OC[C@H](C)CN5CCN(CC6CCC7(CC6)CCN(C(=O)c6ccc(OC)c(N8CCC(=O)NC8=O)c6)CC7)CC5)nc4c3F)c12 [Example 60, 1-(5-(9-((4-((R)-3-((7-(8-ethynyl-7-fluoro-3-hydroxynaphthalen-1-yl)-8-fluoro-4-((R)-3-hydroxy-3-methylpiperidin-1-yl)quinazolin-2-yl)oxy)-2-methylpropyl)piperazin-1-yl)methyl)-3-azaspiro[5.5]undecane-3-carbonyl)-2-methoxyphenyl)dihydropyrimidine-2,4(1H,3H)-dione] | 24 nM | 15.4 nM | 57.5 nM | 4.25 nM | 99.1% | 60.8 nM | – | –
5 | C#Cc1c(F)ccc2cc(O)cc(-c3ncc4c(NC5CC5)nc(OCC5(CN6CCN(CC7CCC8(CC7)CCN(C(=O)c7ccc(OC)c(N9CCC(=O)NC9=O)c7)CC8)CC6)CC5)nc4c3F)c12 [Example 31, 1-(5-(9-((4-((1-(((4-(cyclopropylamino)-7-(8-ethynyl-7-fluoro-3-hydroxynaphthalen-1-yl)-8-fluoropyrido[4,3-d]pyrimidin-2-yl)oxy)methyl)cyclopropyl)methyl)piperazin-1-yl)methyl)-3-azaspiro[5.5]undecane-3-carbonyl)-2-methoxyphenyl)dihydropyrimidine-2,4(1H,3H)-dione] | – | – | – | – | – | – | 50 to 100 nM | 50 to 80%
6 | C#Cc1c(F)ccc2cc(O)cc(-c3ncc4c(N5CCC[C@@](C)(O)C5)nc(OCC5(CN6CCC(CN(C)CCC7CCN(C(=O)c8ccc(Cl)c(N9CCC(=O)NC9=O)c8)CC7)CC6)CC5)nc4c3F)c12 [Example 18, (R)-1-(2-chloro-5-(4-(2-(((1-((1-(((7-(8-ethynyl-7-fluoro-3-hydroxynaphthalen-1-yl)-8-fluoro-4-(3-hydroxy-3-methylpiperidin-1-yl)piperidino[4,3-d]pyrimidin-2-yl)oxy)methyl)cyclopropyl)methyl)piperidin-4-yl)methyl)(methyl)amino)ethyl)piperidine-1-carbonyl)phenyl)dihydropyrimidine-2,4(1H,3H)-dione] | – | – | – | – | – | – | 100 to 500 nM | 50 to 80%
7 | C#Cc1c(F)ccc2cc(O)cc(-c3ncc4c(NC(C)(C)C)nc(OCC5(CN6CCN(CC7CCC8(CC7)CCN(C(=O)c7ccc(OC)c(N9CCC(=O)NC9=O)c7)CC8)CC6)CC5)nc4c3F)c12 [Example 32, 1-(5-(9-((4-((1-(((4-(tert-butylamino)-7-(8-ethynyl-7-fluoro-3-hydroxynaphthalen-1-yl)-8-fluoropyrido[4,3-d]pyrimidin-2-yl)oxy)methyl)cyclopropyl)methyl)piperazin-1-yl)methyl)-3-azaspiro[5.5]undecane-3-carbonyl)-2-methoxyphenyl)dihydropyrimidine-2,4(1H,3H)-dione] | – | – | – | – | – | – | ≤ 50 nM | 50 to 80%
